Consider four substances from patent US8987193B2, “Nisin derivatives and the use thereof” (University College Cork—National University of Ireland, Cork, priority 2008, dated 2015).

One experiment deals with Staph. aureus DPC5245. Description: Deferred antagonism assay. It is filed as cell-based. To be noted: producing strain; diameter of zone minus 5 mm; average of duplicates; St. aureus DPC5245. Put shortly:
(§1)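 Producer strains replicated on GM17 agar, grown overnight, then overlaid with soft agar (0.75% w/v) seeded with indicator strain. Zone size = clearing diameter minus 5 mm growth diameter, relative to NZ9800 pCI372nisA control; mean of duplicates.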

Experiment [1] deals with Staph. aureus ST528 (MRSA). Description: Deferred antagonism assay. The class given is cell-based. To be noted: producing strain, diameter of zone minus diameter of bacterial growth (5 mm), average of duplicates. Put shortly: as §1
The subject of experiment [2] is Strep. agalactiae ATCC13813. Kind of experiment: Deferred antagonism assay. The class given is cell-based. The settings on record: producing strain, diameter of zone minus 5 mm, average of duplicates.
A further experiment deals with L. monocytogenes CBC1. Kind of experiment: Deferred antagonism assay. Also noted: key: + = Enhanced bioactivity relative to control; − = Bioactivity equal to or less than control; NA = no activity evident. It is filed as cell-based, Listeria monocytogenes. To be noted: producing strain; L. mono CBC1. Put shortly: (§2)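 L. lactis NZ9800 strains expressing nisin A hinge variants were replicated or spotted on GM17 agar, grown overnight, then overlaid with 0.75% w/v agar seeded with indicator. Zone size is the clearing diameter minus 5 mm colony growth.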

Another experiment concerns L. monocytogenes CBC2. Description: Deferred antagonism assay. Further details: key: + = Enhanced bioactivity relative to control; − = Bioactivity equal to or less than control; NA = no activity evident. It is filed as cell-based, Listeria monocytogenes. To be noted: producing strain; L. mono CBC2. Put shortly:
as §2

The next experiment relates to L. monocytogenes CBC3. Kind of experiment: Deferred antagonism assay. It is filed as cell-based, Listeria monocytogenes. Further details: key: + = Enhanced bioactivity relative to control; − = Bioactivity equal to or less than control; NA = no activity evident. The settings on record: producing strain; L. mono CBC3. The method, boiled down: as §2
The subject of another experiment is L. lactis CBC7. Description: Deferred antagonism assay. To be noted: producing strain. Further details: key: + = Enhanced bioactivity relative to control; − = Bioactivity equal to or less than control; NA = no activity evident. The class given is cell-based. Put shortly: as §2
Another experiment has as its system L. lactis CBC8. Kind of experiment: Deferred antagonism assay. The class given is cell-based. Further details: key: + = Enhanced bioactivity relative to control; − = Bioactivity equal to or less than control; NA = no activity evident. The settings on record: producing strain. The method, boiled down: as §2
A further experiment has as its system S. aureus CBC4. Description: Deferred antagonism assay. It is filed as cell-based. Further details: key: + = Enhanced bioactivity relative to control; − = Bioactivity equal to or less than control; NA = no activity evident. The settings on record: producing strain. Put shortly:
as §2

Another experiment relates to C. sporogenes CBC5. Kind of experiment: Deferred antagonism assay. The class given is cell-based, Clostridium sporogenes. Also noted: key: + = Enhanced bioactivity relative to control; − = Bioactivity equal to or less than control; NA = no activity evident. To be noted: producing strain.
Another experiment concerns L. plantarum CBC6. Description: Deferred antagonism assay. The settings on record: producing strain. It is filed as cell-based, Lactobacillus plantarum. Also noted: key: + = Enhanced bioactivity relative to control; − = Bioactivity equal to or less than control; NA = no activity evident. The method, boiled down:
as §2

A further experiment deals with indicator strains. Description: Deferred antagonism assays, various indicator strains (summary). It is filed as cell-based. The settings on record: for bioactivity of the producing strain, in words: in general / against the strains tested; for Strain(s) against which the derivative (producing strain) displays enhanced bioactivity: relative to nisin A-producing control, value = strains listed. Put shortly:
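Producer strains were replicated on GM17 or GM17 x-gal agar, grown overnight, then overlaid with GM17, BHI, TS or MH soft agar (0.75% w/v) seeded with the indicator strain. Zone size was taken as the clearing diameter minus the diameter of bacterial growth (5 mm).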

“Also recorded” adds a separate entry of the source. Ends that are not written are not given here.

In the case of “NisinA K22M (ITSISLCTPGCKTGALMGCNMMTATCHCSIHVSK; cysteine pairing not given here; also: lantibiotic nisin-A; UniProt P13068 24-57, looked up, variant K22M) [nisin A derivative, hinge substitution K22M]”, the “zone size relative to that of the NZ9800 pCI372nisA control” value (from here on “zone size relative to that”) in the experiment on Staph. aureus DPC5245 was determined as 79.5%; in [1] it was 77%; in experiment [2] it was 104%. The “Bioactivity relative to control” value is reported as “−” in the experiment on L. monocytogenes CBC1; “−” in the experiment with L. monocytogenes CBC2; “−” in the experiment on L. monocytogenes CBC3; “−” in the experiment on L. lactis CBC7; “+” with L. lactis CBC8; “−” in the experiment with S. aureus CBC4. Also, the “Bioactivity relative to control” value in the experiment with C. sporogenes CBC5 and with L. plantarum CBC6 was “−” in each case. Besides, the “bioactivity of the producing strain, in words” value in the experiment on indicator strains was “retention of relatively high levels of bioactivity”. For the same substance, the “Strain(s) against which the derivative (producing strain) displays enhanced bioactivity” value (shortened to “Strain(s) against which the derivative”) with indicator strains is “L. lactis CBC8”.
Regarding “NisinA K22Q (ITSISLCTPGCKTGALMGCNMQTATCHCSIHVSK; not fully specified; also: lantibiotic nisin: dehydrated residues and thioether rings not placed; UniProt P13068 24-57, looked up, variant K22Q) [nisin A derivative, hinge substitution K22Q]”, the “zone size relative to that” value in the experiment with Staph. aureus DPC5245 stood at 77%; in [1], 82%; in experiment [2], 82%. Besides, the “Bioactivity relative to control” value with L. monocytogenes CBC1 is listed as “−”; in the experiment with L. monocytogenes CBC2, “−”; in the experiment with L. monocytogenes CBC3, “−”; in the experiment on L. lactis CBC7 it was “−”; in the experiment with L. lactis CBC8 it was “+”; with S. aureus CBC4 it was “−”. Moreover, the “Bioactivity relative to control” value with C. sporogenes CBC5 and in the experiment on L. plantarum CBC6 was “−” in each case. In addition, the “bioactivity of the producing strain, in words” value in the experiment with indicator strains is “slightly diminished bioactivity”. Further, the “Strain(s) against which the derivative” value in the experiment on indicator strains is given as “L. lactis CBC8”.
Regarding NisinA K22V, the “zone size relative to that” value with Staph. aureus DPC5245 was 113%; in experiment [1], 107%; in experiment [2] it was 126%. Besides, the “Bioactivity relative to control” value in the experiment on L. monocytogenes CBC1 is recorded as “−”; with L. monocytogenes CBC2 it was “+”; with L. monocytogenes CBC3 it was “−”; in the experiment on L. lactis CBC7 it was “−”; in the experiment on L. lactis CBC8 it was “+”; with S. aureus CBC4, “−”. The “Bioactivity relative to control” value with C. sporogenes CBC5 and in the experiment on L. plantarum CBC6 was “−” in each case. Moreover, the “Strain(s) against which the derivative” value in the experiment with indicator strains was “L. monocytogenes CBC2 and L. lactis CBC8”.
For “NisinA M21A (ITSISLCTPGCKTGALMGCNAKTATCHCSIHVSK; not fully specified; also: lantibiotic nisin: dehydrated residues and thioether rings not placed; UniProt P13068 24-57, looked up, variant M21A) [nisin A derivative, hinge substitution M21A]”, the “zone size relative to that” value in the experiment with Staph. aureus DPC5245 is listed as 135%; in [1], 132.5%; in experiment [2] it was 105%. Moreover, the “Bioactivity relative to control” value is reported as “+” in the experiment on L. monocytogenes CBC1; “−” in the experiment with L. monocytogenes CBC2; “−” with L. monocytogenes CBC3; “+” in the experiment on L. lactis CBC7; “+” in the experiment on L. lactis CBC8; “−” in the experiment on S. aureus CBC4. Besides, the “Bioactivity relative to control” value in the experiment on C. sporogenes CBC5 and in the experiment on L. plantarum CBC6 was “−” each time. Also, the “Strain(s) against which the derivative” value with indicator strains was “L. monocytogenes CBC1 and L. lactis CBCT and CBC8; also recorded: L. monocytogenes CBC1 , and L. lactis CBC7 and CBC8; also recorded: L. monocytogenes CBC1, L. lactis CBC7, CBC8, S. aureus”.
